Patent publication US9718774B2, “Indole carboxamide derivatives as P2X7 receptor antagonist” (ACTELION PHARMACEUTICALS LTD, priority 2012, dated 2017)

molecular target: T1, human recombinant P2X7 receptor (Homo sapiens, UniProt Q99572); test: YO-PRO assay: P2X7 receptor antagonistic activity in HEK cells stably expressing P2X7; assay type: cell-based; details: antagonistic activity with respect to the P2X7 receptor, read-out: IC50
T1 construct: expressed in transfected cells
T1 sequence (Q99572 1-595): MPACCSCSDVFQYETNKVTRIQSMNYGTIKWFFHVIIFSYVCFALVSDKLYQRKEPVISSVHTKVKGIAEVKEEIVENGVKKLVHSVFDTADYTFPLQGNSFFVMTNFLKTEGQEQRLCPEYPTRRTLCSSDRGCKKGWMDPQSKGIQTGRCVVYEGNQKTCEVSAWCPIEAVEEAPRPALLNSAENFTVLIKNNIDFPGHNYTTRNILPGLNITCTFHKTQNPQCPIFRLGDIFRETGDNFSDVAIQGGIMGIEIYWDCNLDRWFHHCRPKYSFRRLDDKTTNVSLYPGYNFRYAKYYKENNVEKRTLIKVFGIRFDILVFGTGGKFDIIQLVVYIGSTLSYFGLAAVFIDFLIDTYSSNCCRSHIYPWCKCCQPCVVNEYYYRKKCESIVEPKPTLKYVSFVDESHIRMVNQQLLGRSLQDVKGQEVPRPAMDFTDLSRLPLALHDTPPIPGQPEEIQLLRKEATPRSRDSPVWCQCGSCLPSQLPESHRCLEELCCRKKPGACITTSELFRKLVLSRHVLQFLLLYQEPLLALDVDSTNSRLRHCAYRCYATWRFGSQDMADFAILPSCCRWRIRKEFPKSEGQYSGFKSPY
Method in brief: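 HEK cells stably transfected with human P2X7 (cloned from blood cDNA) were loaded with 0.5 μM YO-PRO-1. They were exposed to antagonist (10 concentrations, top 10 μM, 1/3 steps, duplicate) together with 250 μM ATP for 90 min, and dye uptake was read by FLIPR at ex 485/em 530. IC50 from maximum fluorescence versus concentration.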

| Compound | IC50 [nM] |
| --- | --- |
| CC(=O)N1CCC(C(CNC(=O)c2ccc3[nH]ccc3c2Cl)c2cccnc2)CC1 (racemic) [Example 22, rac-4-Chloro-1H-indole-5-carboxylic acid [2-(1-acetyl-piperidin-4-yl)-2-pyridin-3-yl-ethyl]-amide] | 126 |
| Cc1ncc(C(CNC(=O)c2ccc3[nH]ccc3c2Cl)N2CCC(C)CC2)cn1 (racemic) [Example 76, rac-4-Chloro-1H-indole-5-carboxylic acid [2-(4-methyl-piperidin-1-yl)-2-(2-methyl-pyrimidin-5-yl)-ethyl]-amide] | 348 |
| CC(=O)c1cc(C(=O)NCC(c2cnc(C)nc2)N2CCOCC2)c(Cl)c2cc[nH]c12 (racemic) [Example 102, rac-7-Acetyl-4-chloro-1H-indole-5-carboxylic acid [2-(2-methyl-pyrimidin-5-yl)-2-morpholin-4-yl-ethyl]-amide] | 33 |
| O=C(NCC(c1cncnc1)N1CCOCC1)c1ccc2[nH]ccc2c1Cl (racemic) [Example 26, rac-4-Chloro-1H-indole-5-carboxylic acid (2-morpholin-4-yl-2-pyrimidin-5-yl-ethyl)-amide] | 10 |
| CCOC(CNC(=O)c1ccc2[nH]ccc2c1Cl)c1cnc(C)nc1 (racemic) [Example 67, rac-4-Chloro-1H-indole-5-carboxylic acid [2-ethoxy-2-(2-methyl-pyrimidin-5-yl)-ethyl]-amide] | 636 |
| Cc1ncc(C(CNC(=O)c2ccc3[nH]ccc3c2Cl)N2CCC(F)(F)C2)cn1 (racemic) [Example 82, rac-4-Chloro-1H-indole-5-carboxylic acid [2-(3,3-difluoro-pyrrolidin-1-yl)-2-(2-methyl-pyrimidin-5-yl)-ethyl]-amide] | 34 |
| O=C(NCC(c1ccns1)N1CCCCC1)c1ccc2[nH]ccc2c1Cl (racemic) [Example 61, rac-4-Chloro-1H-indole-5-carboxylic acid (2-isothiazol-5-yl-2-piperidin-1-yl-ethyl)-amide] | 15 |
| O=C(NCC(c1ccc(C(F)(F)F)cc1)N1CCCCC1)c1ccc2[nH]ccc2c1Cl (racemic) [Example 44, rac-4-Chloro-1H-indole-5-carboxylic acid [2-piperidin-1-yl-2-(4-trifluoromethyl-phenyl)-ethyl]-amide] | 889 |
| O=C(NCC(c1ccc(Cl)nc1)N1CCOCC1)c1ccc2[nH]ccc2c1Cl (racemic) [Example 24, rac-4-Chloro-1H-indole-5-carboxylic acid [2-(6-chloro-pyridin-3-yl)-2-morpholin-4-yl-ethyl]-amide] | 4.7 |
| CCC(CC)OC(CNC(=O)c1ccc2[nH]ccc2c1Cl)c1cnc(C)nc1 (racemic) [Example 71, rac-4-Chloro-1H-indole-5-carboxylic acid [2-(1-ethyl-propoxy)-2-(2-methyl-pyrimidin-5-yl)-ethyl]-amide] | 22 |
| Cc1ncc(C(CNC(=O)c2ccc3[nH]ccc3c2Cl)N2CCC(F)(F)CC2)cn1 (single isomer, unassigned) [Example 5, 4-Chloro-1H-indole-5-carboxylic acid [2-(4,4-difluoro-piperidin-1-yl)-2-(2-methyl-pyrimidin-5-yl)-ethyl]-amide] | 7.9 |
| O=C(NCC(c1cnc(C2CC2)nc1)N1CCOCC1)c1ccc2[nH]ccc2c1Cl (racemic) [Example 9, rac-4-Chloro-1H-indole-5-carboxylic acid [2-(2-cyclopropyl-pyrimidin-5-yl)-2-morpholin-4-yl-ethyl]-amide] | 7.7 |
| Cc1ccc(C(CNC(=O)c2ccc3[nH]ccc3c2Cl)N2CCOCC2)cn1 (racemic) [Example 7, rac-4-Chloro-1H-indole-5-carboxylic acid [2-(6-methyl-pyridin-3-yl)-2-morpholin-4-yl-ethyl]-amide] | 19 |
| COCCCc1cc(C(=O)NCC(c2cnc(C)nc2)N2CCOCC2)c(Cl)c2cc[nH]c12 (racemic) [Example 99, rac-4-Chloro-7-(3-methoxy-propyl)-1H-indole-5-carboxylic acid [2-(2-methyl-pyrimidin-5-yl)-2-morpholin-4-yl-ethyl]-amide] | 21 |
| Cc1ncc(C(CNC(=O)c2ccc3[nH]ccc3c2Cl)N2CCC(F)(F)CC2)cn1 (single isomer, unassigned) [Example 6, 4-Chloro-1H-indole-5-carboxylic acid [2-(4,4-difluoro-piperidin-1-yl)-2-(2-methyl-pyrimidin-5-yl)-ethyl]-amide] | 6.8 |
